This experiment concerns the target Neuropeptide Y receptor type 1 (Homo sapiens) (UniProt P25929). Nature of the experiment: NPY-Y1 receptor antagonist potency, dose response, cell-based (AID 1277). The conditions noted are these: NPY-Y1 expressing cells, antagonist mode.

Molecules are shown by their SMILES. Activity calls are given as the source filed them. How the calls were made is not given here.

Chain of Neuropeptide Y receptor type 1 (Homo sapiens) (P25929 whole entry, looked up): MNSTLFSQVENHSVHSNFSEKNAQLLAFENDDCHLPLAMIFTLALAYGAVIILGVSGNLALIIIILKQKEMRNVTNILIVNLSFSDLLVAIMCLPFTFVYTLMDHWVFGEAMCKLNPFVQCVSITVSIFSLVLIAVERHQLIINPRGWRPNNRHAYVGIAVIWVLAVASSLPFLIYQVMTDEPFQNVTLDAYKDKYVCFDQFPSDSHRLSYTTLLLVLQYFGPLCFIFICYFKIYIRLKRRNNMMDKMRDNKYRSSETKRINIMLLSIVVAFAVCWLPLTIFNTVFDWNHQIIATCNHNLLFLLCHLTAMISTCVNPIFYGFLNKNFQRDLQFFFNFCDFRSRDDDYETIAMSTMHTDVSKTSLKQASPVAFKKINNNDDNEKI

Take `Cc1cc(C(=O)CSc2nc3ccccc3c(=O)n2C)c(C)n1CC1CCCO1` (centres undefined): the IC50 is < 35 µM (inactive).

`Cn1ccnc1C1CCCCN1Cc1nc(-c2ccc3c(c2)OCO3)no1` (centres undefined): the IC50 was < 35 µM (inactive).

Take `CC(C)CC(c1nnnn1C1CCCC1)N1CCN(c2ccccc2F)CC1` (centres undefined): the IC50 was < 35 µM (inactive).

Turning to `COc1cccc(Oc2cn[nH]c2-c2ccc(O)cc2O)c1`, the IC50 was < 35 µM (inactive).

The record behind these values is PubChem BioAssay AID1277 (The Scripps Research Institute Molecular Screening Center, 2008).
